Assays:
UM-UC-9 engineered cells = experiment: Cell proliferation / short-term viability assay, CellTiter-Glo 144 h; format: cell-based, human; details: read-out: CTGlo 144 h UMUC9.5, G150
Procedure, shortened: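 Viability read by CellTiter-Glo 2.0 luminescence at day 7 versus DMSO-vehicle wells and a T0 plate measured on day 0. Cells: UM-UC-9 engineered assay-ready stocks, 500 cells/well in high-glucose DMEM with 10% FBS, 37° C, 5% CO2.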

His6-TEV-PPARγ-(234-505) = biological target: T1, His6-TEV-PPARγ-(234-505) (Homo sapiens, UniProt P37231); experiment: TR-FRET Assay to Measure Co-R Peptide Recruitment to PPARγ; format: biochemical; details: Co-R peptide (SMRT-ID2) recruitment; top final concentration 20 μM; read-out: TR-FRET i-Ag; AC50
T1 construct: The His6-TEV-PPARγ-(234-505) protein for assay was expressed and purified; TEV cleavage site (N); made in house
T1 sequence (P37231 234-505): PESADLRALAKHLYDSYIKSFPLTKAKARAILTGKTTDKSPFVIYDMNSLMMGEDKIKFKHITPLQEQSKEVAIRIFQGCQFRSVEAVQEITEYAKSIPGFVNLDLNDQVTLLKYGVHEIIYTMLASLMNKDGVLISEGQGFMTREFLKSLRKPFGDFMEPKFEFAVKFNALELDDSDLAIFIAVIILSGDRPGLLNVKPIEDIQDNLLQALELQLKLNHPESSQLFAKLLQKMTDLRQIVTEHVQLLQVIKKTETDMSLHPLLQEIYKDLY
Procedure, shortened: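 Corepressor recruitment is measured by adding terbium-labeled anti-His antibody and FITC SMRT-ID2 peptide, at 5 and 200 nM final, after a 20-minute room-temperature protein–compound incubation. After one further hour, signal is converted to percent response between DMSO and 500 nM T0070907 wells.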

Row | Substance | IC50 (UM-UC-9 engineered cells) [nM] | AC50 (His6-TEV-PPARγ-(234-505)) [nM]
1 | (S)—N-((1s,4R)-4-(1,1-difluoroethyl)-4-hydroxycyclohexyl)-4-(5-(5-fluoro-2-methoxypyridin-4-yl)-1H-pyrazole-3-carbonyl)-4-azaspiro[2.5]octane-7-carboxamide and (S)—N-((1r,4S)-4-(1,1-difluoroethyl)-4-hydroxycyclohexyl)-4-(5-(5-fluoro-2-methoxypyridin-4-yl)-1H-pyrazole-3-carbonyl)-4-azaspiro[2.5]octane-7-carboxamide [Example 375] | 1.6 | 6.4
2 | (S)—N-((4S,7r)-3,3-difluoro-1-oxaspiro[3.5]nonan-7-yl)-4-(5-(5-fluoro-2-methoxypyridin-4-yl)-1H-pyrazole-3-carbonyl)-4-azaspiro[2.5]octane-7-carboxamide and (S)—N-((4R,7s)-3,3-difluoro-1-oxaspiro[3.5]nonan-7-yl)-4-(5-(5-fluoro-2-methoxypyridin-4-yl)-1H-pyrazole-3-carbonyl)-4-azaspiro[2.5]octane-7-carboxamide [Example 374] | 15.8 | 13.1
3 | (S)—N—((R)-1-(3-chloropyridin-2-yl)ethyl)-4-(5-(5-fluoro-2-methoxypyridin-4-yl)-1H-pyrazole-3-carbonyl)-4-azaspiro[2.5]octane-7-carboxamide and (S)—N—((S)-1-(3-chloropyridin-2-yl)ethyl)-4-(5-(5-fluoro-2-methoxypyridin-4-yl)-1H-pyrazole-3-carbonyl)-4-azaspiro[2.5]octane-7-carboxamide [Example 360] | 8.7 | 21.8
4 | (S)—N—((S)-1-(5-cyclopropyl-1,3,4-oxadiazol-2-yl)ethyl)-4-(5-(5-fluoro-2-methoxypyridin-4-yl)-1H-pyrazole-3-carbonyl)-4-azaspiro[2.5]octane-7-carboxamide and (S)—N—((R)-1-(5-cyclopropyl-1,3,4-oxadiazol-2-yl)ethyl)-4-(5-(5-fluoro-2-methoxypyridin-4-yl)-1H-pyrazole-3-carbonyl)-4-azaspiro[2.5]octane-7-carboxamide [Example 395] | 761 | 274
5 | (S)—N—((S)-3,4-dihydro-2H-pyrano[3,2-b]pyridin-4-yl)-4-(5-(5-fluoro-2-methoxypyridin-4-yl)-1H-pyrazole-3-carbonyl)-4-azaspiro[2.5]octane-7-carboxamide and (S)—N—((R)-3,4-dihydro-2H-pyrano[3,2-b]pyridin-4-yl)-4-(5-(5-fluoro-2-methoxypyridin-4-yl)-1H-pyrazole-3-carbonyl)-4-azaspiro[2.5]octane-7-carboxamide [Example 366] | 41.4 | 28.8
